Measured values reported in PubChem BioAssay (NCI).
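At the GI50, growth is halved. The concentration for full growth arrest is given as TGI.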

Assays:
Experiment in all cases: DTP human tumour cell line panel, 384-well format
[1] = tested on: OVCAR-3 ovarian
[2] = tested on: KM12 colon
[3] = tested on: U251 glioblastoma
[4] = tested on: NCI/ADR-RES ovarian
[5] = tested on: NCI-H226 lung
[6] = tested on: HT29 colon
[7] = tested on: SF-295 CNS
[8] = tested on: DU-145 prostate
[9] = tested on: SNB-19 CNS
[10] = tested on: SF-268 CNS
[11] = tested on: MDA-MB-468 breast
[12] = tested on: ACHN renal
[13] = tested on: SR leukemia
[14] = tested on: PC-3 prostate
[15] = tested on: SK-MEL-5 melanoma
[16] = tested on: HOP-92 NSCLC
[17] = tested on: CAKI-1 renal
[18] = tested on: HCC-2998 colon
[19] = tested on: LOX IMVI melanoma
[20] = tested on: COLO 205 colon
[21] = tested on: BT-549 breast
[22] = tested on: RXF 393 renal
[23] = tested on: HS 578T breast
[24] = tested on: UACC-257 melanoma
[25] = tested on: A549 NSCLC
[26] = tested on: HOP-62 NSCLC
[27] = tested on: MDA-MB-231 breast
[28] = tested on: TK-10 renal
[29] = tested on: HCT-15 colon
[30] = tested on: SK-OV-3 ovarian
[31] = tested on: SN12C renal
[32] = tested on: OVCAR-8 ovarian
[33] = tested on: EKVX NSCLC
[34] = tested on: SF-539 CNS
[35] = tested on: OVCAR-4 ovarian
[36] = tested on: NCI-H322M lung
[37] = tested on: UACC-62 melanoma
[38] = tested on: NCI-H522 lung
[39] = tested on: A498 renal
[40] = tested on: RPMI-8226 leukemia
[41] = tested on: M14 melanoma
[42] = tested on: MCF7 breast
[43] = tested on: HL-60(TB) leukemia
[44] = tested on: HCT-116 colon
[45] = tested on: NCI-H23 lung
[46] = tested on: IGROV1 ovarian
[47] = tested on: SNB-75 CNS
[48] = tested on: MDA-MB-435 melanoma
[49] = tested on: MOLT-4 leukemia
[50] = tested on: NCI-H460 NSCLC
[51] = tested on: T-47D breast

SMILES: Cc1ccc(Cl)cc1-c1nc(N)nc(Nc2ccc(Br)cc2)n1
- GI50 [1]: 22.3 nM
- TGI [1]: 45.8 nM
- GI50 [2]: 43.4 nM
- TGI [2]: 94100 nM
- GI50 [3]: 42.8 nM
- TGI [3]: 2870 nM
- GI50 [4]: 20.9 nM
- TGI [4]: 51.3 nM
- GI50 [5]: 35.6 nM
- TGI [5]: 97.8 nM
- GI50 [6]: 34.4 nM
- TGI [6]: 15100 nM
- GI50 [7]: 35.5 nM
- TGI [7]: 12600 nM
- GI50 [8]: 39.5 nM
- TGI [8]: 269 nM
- GI50 [9]: 54.1 nM
- TGI [9]: 14400 nM
- GI50 [10]: 50.4 nM
- TGI [10]: > 100000 nM
- GI50 [11]: 174 nM
- TGI [11]: 378 nM
- GI50 [12]: 77 nM
- TGI [12]: > 100000 nM
- GI50 [13]: 17.3 nM
- TGI [13]: 37.6 nM
- GI50 [14]: 46 nM
- TGI [14]: 51900 nM
- GI50 [15]: 24.2 nM
- TGI [15]: 58.6 nM
- GI50 [16]: 10400 nM
- TGI [16]: > 100000 nM
- GI50 [17]: 68.8 nM
- TGI [17]: > 100000 nM
- GI50 [18]: 25.9 nM
- TGI [18]: 170 nM
- GI50 [19]: 55.2 nM
- TGI [19]: 569 nM
- GI50 [20]: 34 nM
- TGI [20]: 93.6 nM
- GI50 [21]: 49.1 nM
- TGI [21]: 374 nM
- GI50 [22]: 32.8 nM
- TGI [22]: 36600 nM
- GI50 [23]: 21.4 nM
- TGI [23]: 51.1 nM
- GI50 [24]: 40.1 nM
- TGI [24]: > 100000 nM
- GI50 [25]: 88 nM
- TGI [25]: > 100000 nM
- GI50 [26]: 36 nM
- TGI [26]: 17600 nM
- GI50 [27]: 84.4 nM
- TGI [27]: > 100000 nM
- GI50 [28]: 70 nM
- TGI [28]: > 100000 nM
- GI50 [29]: 37.4 nM
- TGI [29]: 271 nM
- GI50 [30]: 38.6 nM
- TGI [30]: 57000 nM
- GI50 [31]: 25.4 nM
- TGI [31]: 37500 nM
- GI50 [32]: 51.8 nM
- TGI [32]: > 100000 nM
- GI50 [33]: 49.4 nM
- TGI [33]: > 100000 nM
- GI50 [34]: 36.3 nM
- TGI [34]: 1060 nM
- GI50 [35]: 57.3 nM
- TGI [35]: 91800 nM
- GI50 [36]: 409 nM
- TGI [36]: > 100000 nM
- GI50 [37]: 45.3 nM
- TGI [37]: > 100000 nM
- GI50 [38]: 23.9 nM
- TGI [38]: 47.9 nM
- GI50 [39]: 38 nM
- TGI [39]: 14800 nM
- GI50 [40]: 20 nM
- TGI [40]: 38.3 nM
- GI50 [41]: 28.9 nM
- TGI [41]: 71.2 nM
- GI50 [42]: 50.1 nM
- TGI [42]: > 100000 nM
- GI50 [43]: 20.5 nM
- TGI [43]: 35.2 nM
- GI50 [44]: 45.2 nM
- TGI [44]: > 100000 nM
- GI50 [45]: 49.9 nM
- TGI [45]: > 100000 nM
- GI50 [46]: 73.3 nM
- TGI [46]: > 100000 nM
- GI50 [47]: 45.2 nM
- TGI [47]: 24300 nM
- GI50 [48]: 20 nM
- TGI [48]: 39.4 nM
- GI50 [49]: 21 nM
- TGI [49]: 37.2 nM
- GI50 [50]: 25.2 nM
- TGI [50]: 63.3 nM
- GI50 [51]: 23500 nM
- TGI [51]: > 100000 nM
